We go through seven compounds from PMC8107365, “Overlapping Properties of the Short Membrane-Active Peptide BP100 With (i) Polycationic TAT and (ii) α-helical Magainin Family Peptides” (Frontiers in Cellular and Infection Microbiology, 2021).

In brackets after ≈: the same amount, converted by molar mass. Several values for one entry are separate records, joined by “and”; a condition that tells them apart may be missing. Identical values can stand only once. Like-named read-outs stand apart in the source and are kept apart here. Marks after values point to notes of the source that are not given here. Where a SMILES comes first, the peptide text is derived from it.

The subject of one data set is human erythrocytes. The experiment in a line: Hemolysis assay. The note with it: for HC10, concentration that induced 10% hemolysis: human erythrocytes 0.25% (v/v), Tris buffer pH 7.6/DMSO, 37°C, 20 min, absorbance 540 nm, relative to Triton X-100, up to 100 µM peptide. How it is done:
The hemolytic effect of the peptides was tested on human erythrocytes as previously described ([Strandberg et al., 2007]). Citrate phosphate dextrose-stabilized blood bags with erythrocyte suspensions were obtained from the blood bank of the local municipal hospital (Karlsruhe, Germany). Erythrocytes were washed twice with 9-fold excess of Tris buffer (172 mM, pH 7.6 at 0°C) followed by centrifugation at 600 g for 10 min at 4°C, and kept on ice in between. After the second wash, the erythrocytes were transferred from the sediment to a fresh tube with the same precooled buffer to be diluted to about 10% (v/v) hematocrit, giving the stock cell suspension, which was kept on ice. […] The stock cell suspension was further diluted to about 0.5% (v/v). After preincubating for 3 min, 200 μL of the resulting erythrocyte dilution was transferred to each tube of the corresponding peptide serial dilution, to a final concentration of 0.25% (v/v). For each dilution series, zero hemolysis was obtained by adding the erythrocytes to Tris buffer (pH 7.6 at 37°C)/dimethylsulfoxide (9:1 v/v) and measuring the background lysis in the absence of peptide. For 100% hemolysis, the erythrocytes were added to 0.2% of Triton X-100 (Sigma, Germany) in the same buffer, giving a final concentration of 0.1% Triton X-100. Incubation was performed at 37°C for 20 min with gentle shaking. The tubes were centrifuged at 20 000 g for 5 min to pellet the cells, and the absorbance at 540 nm was recorded against water. The percentage lysis was then calculated relative to 0% lysis with buffer and 100% lysis by Triton X-100. The absorbance measurement was repeated three times, and the averaged values are used.

Another data set has as its system HeLa cells. Briefly: Toxicity against HeLa cells (calcein AM, fluorescence microscopy). It is filed as cell-based, human. Conditions: for Toxicity (HeLa): overview Figure 5; for HeLa cells: lowest tested concentration where dead HeLa cells were observed: peptides N-terminally labeled with Fluka 630 red, 30 min, 37°C, HKR buffer pH 7.4, calcein AM, confocal microscopy. Here is the method:
HeLa TK A549 cells (from DSMZ, Braunschweig, Germany) were cultivated in minimal essential medium (MEM) with 10% fetal calf serum (FCS) (PAA, Cöble, Germany), and Glutamax (Invitrogen, Karlsruhe, Germany), without antibiotics. Cell density after incubation over night was 30000 cells/chamber in 300 µL medium. For experiments, the medium was removed and cells incubated with peptides at the respective concentration in HEPES Krebs Ringer (HKR) buffer, which consists of 5 mM HEPES, 137 mM NaCl, 2.68 mM KCl, 2.05 mM MgCl2, 1.8 mM CaCl2, and 5.55 mM glucose, pH 7.4. After 30 min (37°C, 5% CO2) cells were washed with HKR buffer, and the behavior of cells at variable peptide concentration examined. A confocal microscope type SP 5 from Leica was used for fluorescence microscopy. The 488 nm line of an argon laser was used for excitation of calcein and the 633 nm line of a helium-neon laser was used for excitation of Fluka 630 red. For kinetic experiments, cells were washed after incubation for 30 minutes and placed into MEM medium at 37°C, and studied after 1, 2, 4, 8 and 24 h. Five minutes before microscopy, calcein AM (Fluka, Buchs, Switzerland) was added to a final concentration of 1 nM to examine cell viability. To avoid artifacts, cells were not fixed.

The subject of data set [1] is Enterobacter helveticus (DSM 18396). Here is the method:
(§1) The antimicrobial activity of BP100 was tested using a standard MIC dilution assay, as previously described ([Strandberg et al., 2007]; [Wadhwani et al., 2012a]). Two Gram-negative strains, Escherichia coli (DSM 498) (K12) and Enterobacter helveticus (DSM 18396), and one Gram-positive strain, Kocuria rhizophila (DSM 348) were used. Bacteria were grown in Luria-Bertani medium at 37°C and 230 rpm overnight, and diluted in 1% trypticase soy broth (TSB). Peptide stock solutions (1024 μg/mL) were prepared in water. Microtiter plates (96 wells of 100 μl) were filled with 50 μl of 1% TSB, and serial 2-fold dilutions of peptides were arranged in columns. The two final rows of each plate remained without peptide, so that the penultimate data point served as the positive control (no peptide) and the final one as the negative control (not inoculated). To each well (except for the final row of each plate), an aliquot of 50 µl of a bacterial suspension containing 10^6 colony-forming units/mL was added to obtain a final volume of 100 µL. Antibacterial activities are expressed as the MIC and correspond to the lowest concentration of peptide, in micromolar units, at which no bacterial growth was detected after overnight incubation at 37°C. The tests were made in triplicate for each peptide, and the value shown is the lowest concentration where at least for two repetitions the growth was inhibited.

For data set [2], the system named is Escherichia coli (DSM 498) (K12). Here is the method:
as §1

Data set [3] deals with Kocuria rhizophila (DSM 348). Here is the method:
as §1

The next data set concerns tested bacteria. The note with it: E. coli DSM 498, E. helveticus, K. rhizophila. Here is the method: as §1
For the next data set, the system named is erythrocytes. The note with it: ref Sabatier et al., 1991; Wang et al., 2010; cited from earlier work. The text has this:
Considering that Table 2 (and Figure 2 ) gives the percent of hemolysis as a function of concentration in µM, it can be noted that BP100 c ...

For data set [4] the following is noted: ref Thorén et al., 2005; cited from earlier work. The text has this:
Another kind of action of membrane-bound peptides is to facilitate fusion between membranes of vesicles or cells. We find here that BP100 has strong fusogenic activity ( Figure 4 ), even higher than the dedicated fusion peptide, FP23 from HIV-1, except in uncharged POPC/CHOL. […] These fusion results fit well with a previous comparison of different AMPs and CPPs ([Wadhwani et al., 2012b]). Obvio ...

[5] abbreviates: serial 2-fold dilution, 1% TSB, overnight 37°C, triplicate, lowest concentration inhibiting growth in at least two repetitions.

Regarding `CC[C@H](C)[C@H](NC(=O)[C@H](C)NC(=O)CNC(=O)[C@H](C)NC(=O)[C@H](CCCCN)NC(=O)[C@H](CO)NC(=O)[C@H](C)NC(=O)[C@H](CCSC)NC(=O)CN)C(=O)N[C@@H](C)C(=O)NCC(=O)N[C@@H](CCCCN)C(=O)N[C@H](C(=O)N[C@@H](C)C(=O)N[C@@H](CCCCN)C(=O)N[C@H](C(=O)N[C@@H](C)C(=O)N[C@@H](CC(C)C)C(=O)N[C@@H](CCCCN)C(=O)N[C@@H](C)C(=O)N[C@@H](CC(C)C)C(N)=O)C(C)C)[C@@H](C)CC` [PGLa] (H-GMASKAGAIAGKIAKVALKAL-NH2), the “HC10, concentration that induced 10% hemolysis” value in the data set with human erythrocytes was 16 µM. For the same compound, the Hemolysis result in the data set on human erythrocytes (overview Figure 5) is “++”. Moreover, in the data set on HeLa cells, the “Toxicity (HeLa)” value is given as “+” and the “HeLa cells: lowest tested concentration where dead HeLa cells were observed” value (shortened to “HeLa cells”) is 10 µM. In data set [1] (setting [5]), the “MIC E. helveticus” value came out at 16.3 µM (≈ 32.1 µg/mL). For the same compound, in data set [2] (setting [5]), the “MIC E. coli (DSM 498)” value is 25 µM (≈ 49.2 µg/mL). Moreover, the “MIC K. rhizophila” value in data set [3] (setting [5]) was found to be 4.1 µM (≈ 8.07 µg/mL).
Regarding `CC[C@H](C)[C@H](NC(=O)[C@H](CCCCN)NC(=O)[C@H](CCCCN)NC(=O)[C@H](Cc1ccccc1)NC(=O)[C@H](CC(C)C)NC(=O)[C@H](CCCCN)NC(=O)[C@@H](N)CCCCN)C(=O)N[C@@H](CC(C)C)C(=O)N[C@@H](CCCCN)C(=O)N[C@@H](Cc1ccc(O)cc1)C(=O)N[C@@H](CC(C)C)C(N)=O` [BP100], the “HC10, concentration that induced 10% hemolysis” value in the data set with human erythrocytes was 45 µM. Besides, the Hemolysis entry in the data set with human erythrocytes (overview Figure 5) was “++”. For the same compound, in the data set on HeLa cells, the “Toxicity (HeLa)” value is listed as “+++” and the “HeLa cells” value is 4 µM. Also, the “MIC E. helveticus” value in data set [1] (setting [5]) turned out to be 6.3 µM (≈ 8.95 µg/mL). The “MIC E. coli (DSM 498)” value in data set [2] (setting [5]) came out at 6.3 µM (≈ 8.95 µg/mL). Also, the “MIC K. rhizophila” value in data set [3] (setting [5]) was 3.2 µM (≈ 4.55 µg/mL).
In the case of `N=C(N)NCCC[C@H](NC(=O)CN)C(=O)N[C@@H](CCCCN)C(=O)N[C@@H](CCCCN)C(=O)N[C@@H](CCCNC(=N)N)C(=O)N[C@@H](CCCNC(=N)N)C(=O)N[C@@H](CCC(N)=O)C(=O)N[C@@H](CCCNC(=N)N)C(=O)N[C@@H](CCCNC(=N)N)C(=O)N[C@@H](CCCNC(=N)N)C(=O)N1CCC[C@H]1C(=O)N1CCC[C@H]1C(=O)N[C@@H](CCC(N)=O)C(=O)O` [TAT], the “HC10, concentration that induced 10% hemolysis” value in the data set with human erythrocytes was >>100 μM. Further, in the data set on human erythrocytes (overview Figure 5), the Hemolysis result is reported as “-”. Besides, the “Hemolytic activity, in words” value in the data set with human erythrocytes (peptide concentrations up to 100 µM) was “hardly any hemolytic activity”. In the data set on HeLa cells, the “Toxicity (HeLa)” value was “-”; the “HeLa cells” value is > 20 μM and > 20 ^e μM. The “MIC E. helveticus” value in data set [1] (setting [5]) was 500 µM (≈ 860 µg/mL). Besides, the “MIC E. coli (DSM 498)” value in data set [2] (setting [5]) is recorded as >500 ^e μM. The “MIC K. rhizophila” value in data set [3] (setting [5]) worked out at 125 µM (≈ 215 µg/mL). For the same compound, the “MIC over the three tested strains” value against tested bacteria is “at least 125 µM”. For the same compound, the “Hemolytic activity, in words (literature)” value in the data set on erythrocytes is given as “did not show any hemolytic activity”.
With `CC[C@H](C)[C@H](NC(=O)[C@H](CCCCN)NC(=O)CNC(=O)[C@H](C)NC(=O)[C@@H](NC(=O)[C@H](CCCCN)NC(=O)[C@H](C)NC(=O)[C@@H](NC(=O)[C@H](CCCCN)NC(=O)CNC(=O)[C@H](C)NC(=O)[C@@H](NC(=O)[C@H](CCCCN)NC(=O)[C@H](C)NC(=O)[C@@H](NC(=O)[C@H](CCCCN)NC(=O)CNC(=O)[C@H](C)NC(=O)[C@@H](NC(=O)[C@@H](N)CCCCN)[C@@H](C)CC)[C@@H](C)CC)[C@@H](C)CC)[C@@H](C)CC)[C@@H](C)CC)C(=O)N[C@@H](C)C(N)=O` [MSI-103] (H-KIAGKIAKIAGKIAKIAGKIA-NH2), in the data set on human erythrocytes, the Hemolysis entry is “++”. Also, in the data set on HeLa cells, the “Toxicity (HeLa)” value was “+++”. The “MIC E. helveticus” value in data set [1] (DSM 18396) amounted to 1.6 µM (≈ 3.3 µg/mL). In data set [2] (DSM 498), the “MIC E. coli (DSM 498)” value turned out to be 12.5 µM (≈ 25.8 µg/mL). Besides, the “MIC K. rhizophila” value in data set [3] (DSM 348) was 0.8 µM (≈ 1.65 µg/mL).
Turning to `CC[C@H](C)[C@H](NC(=O)CN)C(=O)NCC(=O)N[C@@H](CCCCN)C(=O)N[C@@H](Cc1ccccc1)C(=O)N[C@@H](CC(C)C)C(=O)N[C@@H](Cc1c[nH]cn1)C(=O)N[C@@H](CO)C(=O)N[C@@H](C)C(=O)N[C@@H](CCCCN)C(=O)N[C@@H](CCCCN)C(=O)N[C@@H](Cc1ccccc1)C(=O)NCC(=O)N[C@@H](CCCCN)C(=O)N[C@@H](C)C(=O)N[C@@H](Cc1ccccc1)C(=O)N[C@H](C(=O)NCC(=O)N[C@@H](CCC(=O)O)C(=O)N[C@H](C(=O)N[C@@H](CCSC)C(=O)N[C@@H](CC(N)=O)C(=O)N[C@@H](CO)C(=O)O)[C@@H](C)CC)C(C)C` [MAG2, magainin 2] (H-GIGKFLHSAKKFGKAFVGEIMNS-OH), in the data set with HeLa cells, the “Toxicity (HeLa)” value is recorded as “+” and the “HeLa cells” value is 20 µM.
Turning to Ac-GRKKRRQRRRPWQ-NH2 [TATP59W], the “Lipid mixing, in words” value in data set [4] is given as “high extent of lipid mixing”.
For `CC(C)C[C@H](NC(=O)[C@H](C)NC(=O)[C@H](CCCCN)NC(=O)[C@H](CC(C)C)NC(=O)[C@H](C)NC(=O)[C@H](CC(C)C)NC(=O)[C@H](CCCCN)NC(=O)[C@H](CC(C)C)NC(=O)[C@H](C)NC(=O)[C@H](CC(C)C)NC(=O)[C@@H](N)CCCCN)C(=O)N[C@@H](CCCCN)C(=O)N[C@@H](C)C(=O)N[C@@H](C)C(=O)N[C@@H](CC(C)C)C(=O)N[C@@H](CCCCN)C(=O)N[C@@H](CC(C)C)C(=O)N[C@@H](C)C(N)=O` [MAP], the “HC10, concentration that induced 10% hemolysis” value with human erythrocytes was 2 µM. The Hemolysis entry with human erythrocytes (overview Figure 5) was “+++”. Moreover, in the data set with HeLa cells, the “Toxicity (HeLa)” value is given as “+++” and the “HeLa cells” value was 2 µM. In addition, the “MIC E. helveticus” value in data set [1] (setting [5]) was 3.2 µM (≈ 6 µg/mL). Besides, in data set [2] (setting [5]), the “MIC E. coli (DSM 498)” value was 25 µM (≈ 46.9 µg/mL). The “MIC K. rhizophila” value in data set [3] (setting [5]) turned out to be 0.4 µM (≈ 0.751 µg/mL).
